# Earlier results, collected in patent US11904070B2, “Tissue scaffold and scaffold composition” (Locate Therapeutics Limited, priority 2017, dated 2024).
# Conditions: at 25° C.
row,Solubility in water,Molecule
1,Miscible,C[S+](C)[O-] [DMSO]
2,Miscible,"CCO [EtOH, Ethanol]"
3,Miscible,OCC(O)CO [Glycerol]
4,Miscible,"CN1CCCC1=O [NMP, N-Methyl-2-pyrrolidone]"
5,5.8 % w/v,"CC(=O)OCC(COC(C)=O)OC(C)=O [Triacetin, triacetin]"
6,Miscible,polyethylene glycol 400 [PEG400]
